This is an account of results in paper PMC8322138, “BRCA2 binding through a cryptic repeated motif to HSF2BP oligomers does not impact meiotic recombination” (Nature Communications, 2021).

The target in data set [1] is T1, ARM domain of HSF2BP (Homo sapiens, UniProt O75031).
T1 construct: The armadillo domain of HSF2BP, from aa 122 to aa 334; 6xHis-TEV (N, cleaved yes); made in house; host or cells: E. coli BL21 DE3 Rosetta2
T1 sequence (O75031 122-334): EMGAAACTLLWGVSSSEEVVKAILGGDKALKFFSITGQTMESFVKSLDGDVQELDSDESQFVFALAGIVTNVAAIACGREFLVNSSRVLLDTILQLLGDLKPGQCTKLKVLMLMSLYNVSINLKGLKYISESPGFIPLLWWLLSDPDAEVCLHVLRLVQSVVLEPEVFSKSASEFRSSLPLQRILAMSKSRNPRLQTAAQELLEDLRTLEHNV
Kind of data set: ITC of BRCA2 fragments with HSF2BP armadillo domain. The format is binding. The following applies: for n (stoichiometry) / ΔG / −TΔS / ΔH (±error): 293 K. An excerpt:
Human full-length HSF2BP WT and R200T were expressed using a pETM11 (6xHis-TEV) expression vector in E. coli BL21 DE3 Rosetta2 cells, and purified as previously reported (Brandsma et al., Cell Rep 2019). The armadillo domain of HSF2BP, from aa 122 to aa 334, which we will further name ARM, was similarly expressed using a pETM11 (6xHis-TEV) expression vector in BL21 DE3 Rosetta2 cells and purified as full-length HSF2BP.
Human BRCA2 fragment F0 was expressed using a pET-22b expression vector as a fusion protein comprising BRCA2 from aa 2213 to aa 2342 (including mutation C2332T to avoid oxidation problems), a TEV site, a GB1 and 6xHis tag, in E. coli BL21 DE3 Star cells. The BRCA2 gene was optimized for expression in bacteria and synthesized by Genscript. In addition, smaller BRCA2 fragments were produced using the same strategy: FNMR and F15X corresponding to aa 2252 to aa 2342 and aa 2291 to aa 2343, respectively. The smallest fragment F15X∆12, from aa 2312 to aa 2342, was synthesized by Genecust.
ITC experiments were performed using a high-precision VP-ITC instrument (GE Healthcare) at 293 K. To characterize the interactions between HSF2BP and BRCA2 fragments (WT, variants), the proteins were dialyzed against 25 mM Tris pH 7.5, 250 mM NaCl, 5 mM β-mercaptoethanol. The HSF2BP (or ARM domain) was in the sample cell at 10–20 μM and was titrated by BRCA2 fragments at 40–100 μM, using 10 μL injections with 210 s intervals between each injection. The first 2 μL injection was ignored in the final data analysis. The integration of the peaks corresponding to each injection. the correction for the baseline and the fit were performed using the Origin 7.0 software provided by the manufacturer, to obtain the stoichiometry (N), dissociation constant (Kd), and enthalpy of complex formation (ΔH) for each interaction. Two replicates were performed for each experiment.

In data set [2] the target is T1, ARM domain of HSF2BP. In words: SEC-SAXS of ARM bound to F15X. It is filed as physicochemical. On the procedure:
SEC coupled to SAXS is available on the SWING beamline at synchrotron SOLEIL, in order to obtain a distance distribution corresponding to each sample in solution. The free HSF2BP protein as well as the complex between ARM and F15X were analyzed using a Bio SEC-3 column (Agilent) equilibrated in 25 mM Tris-HCl buffer, pH 7.5, 250 mM NaCl, and 5 mM β-mercaptoethanol. The proteins were loaded at a concentration of 6 and 10 mg/ml, in order to observe an elution peak at an OD280nm of 1 and 1.2 AU, respectively.

The target of data set [3] is T1, ARM domain of HSF2BP. In words: SEC-MALS of ARM free or bound to F15X. The format is physicochemical. As for the experimental part: Size-exclusion chromatography (SEC) coupled to MALS was used in order to measure the molecular masses of the complexes in solution. Therefore, HSF2BP and ARM proteins were loaded in the presence and absence of the BRCA2 fragment F15X on a Superdex 200 10/300 GL (GE Healthcare) using a HPLC Shimadzu system coupled to MALS/QELS/UV/RI (Wyatt Technology). The chromatography buffer was 25 mM Tris-HCl buffer, pH 7.5, 250 mM NaCl, 5 mM β-mercaptoethanol. The proteins were injected at 0.8–1 mg/ml in 100 μl. Data were analyzed using the ASTRA software; a calibration was performed with BSA as a standard.

In data set [4] the target is T2, armadillo domain of HSF2BP, from aa 122 to aa 334 (ARM) (human, UniProt O75031 122-334).
T2 construct: Free ARM is a dimer (SEC-MALS); four ARM with two F15X in the complex; A selenomethionine-labelled form was used for the deposited crystal structure; also called HSF2BP ARM; H3 (recombinant); source: E. coli BL21 DE3 Rosetta2, purified (HisTrap, TEV cleavage, SEC)
T2 sequence (looked up): T1 sequence (O75031 122-334)
In words: ITC; HSF2BP or ARM in the cell at 10-20 uM, BRCA2 fragment in the syringe at 40-100 uM; 293 K; 25 mM Tris pH 7.5, 250 mM NaCl, 5 mM beta-mercaptoethanol; two replicates. To be noted: both partners purified.

Data set [5] has as its target T3, Human full-length HSF2BP WT (human, UniProt O75031 1-334).
T3 construct: HSF2BP, human, full length, wild type; pETM11 (6xHis-TEV) vector; purified as in Brandsma et al., Cell Rep 2019; also called HSF2BP FL; HFS2BP; source: E. coli BL21 DE3 Rosetta2, purified (HisTrap, TEV cleavage, SEC)
T3 sequence (looked up): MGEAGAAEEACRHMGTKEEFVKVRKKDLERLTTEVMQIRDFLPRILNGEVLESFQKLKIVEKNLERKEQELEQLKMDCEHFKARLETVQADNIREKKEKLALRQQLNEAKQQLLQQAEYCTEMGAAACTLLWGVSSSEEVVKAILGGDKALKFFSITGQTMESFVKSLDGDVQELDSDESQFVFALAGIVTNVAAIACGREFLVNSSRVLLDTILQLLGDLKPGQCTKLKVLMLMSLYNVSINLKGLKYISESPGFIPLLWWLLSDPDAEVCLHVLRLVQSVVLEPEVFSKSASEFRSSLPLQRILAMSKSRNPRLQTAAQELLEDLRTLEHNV
The description is as above. To be noted: both partners purified.

The target of data set [6] is T4, Human full-length HSF2BP WT (human), O75031.
T4 chain: T3 sequence (looked up)
The description is as above.

Values joined by “and” are separate entries in the source; they are usually repeats but may differ in a detail not shown here. Equal entries are not always repeated.

As for `CC[C@H](C)[C@H](NC(=O)[C@H](CCCNC(=N)N)NC(=O)[C@H](CC(=O)O)NC(=O)[C@H](Cc1ccccc1)NC(=O)[C@H](CCC(=O)O)NC(=O)[C@@H](N)CC(N)=O)C(=O)N[C@H](C(=O)N[C@@H](CCC(=O)O)C(=O)N[C@@H](CC(N)=O)C(=O)N[C@@H](CCC(N)=O)C(=O)N[C@@H](CCC(=O)O)C(=O)N[C@@H](CCCCN)C(=O)N[C@@H](CO)C(=O)N[C@@H](CC(C)C)C(=O)N[C@@H](CCCCN)C(=O)N[C@@H](C)C(=O)N[C@@H](CO)C(=O)N[C@@H](CCCCN)C(=O)N[C@@H](CO)C(=O)N[C@H](C(=O)N1CCC[C@H]1C(=O)N[C@@H](CC(=O)O)C(=O)NCC(=O)N[C@H](C(=O)N[C@H](C(=O)N[C@@H](CCCCN)C(=O)N[C@@H](CC(=O)O)C(=O)N[C@@H](CCCNC(=N)N)C(=O)N[C@@H](CCCNC(=N)N)C(=O)N[C@@H](CC(C)C)C(=O)N[C@@H](Cc1ccccc1)C(=O)N[C@@H](CCSC)C(=O)N[C@@H](Cc1c[nH]cn1)C(=O)N[C@@H](Cc1c[nH]cn1)C(=O)N[C@H](C(=O)N[C@@H](CO)C(=O)N[C@@H](CC(C)C)C(=O)N[C@@H](CCC(=O)O)C(=O)N1CCC[C@H]1C(=O)N[C@H](C(=O)N[C@H](C(=O)N[C@H](C(=O)N[C@H](C(=O)N1CCC[C@H]1C(=O)N[C@@H](Cc1ccccc1)C(=O)N[C@@H](CCCNC(=N)N)C(=O)N[C@H](C(=O)N[C@H](C(=O)N[C@@H](CCCCN)C(=O)N[C@@H](CCC(=O)O)C(=O)N[C@@H](CCCNC(=N)N)C(=O)N[C@@H](CCC(N)=O)C(=O)N[C@@H](CCC(=O)O)C(=O)O)[C@@H](C)O)[C@@H](C)O)C(C)C)[C@@H](C)O)[C@@H](C)O)[C@@H](C)CC)C(C)C)[C@@H](C)CC)[C@@H](C)O)[C@@H](C)O)[C@@H](C)CC` [F15X], at ARM domain of HSF2BP [1] (pH 7.5, expt 1), the “n (stoichiometry)” value is listed as 0.33, the ΔG is -10.6 kcal/mol and the “−TΔS” value was -0.4 kcal/mol. For the same molecule, the “ΔH (±error)” value on ARM domain of HSF2BP [1] (pH 7.5, expt 1, error in brackets) was −10.2 (0.1) kcal/mol. At ARM domain of HSF2BP [1] (pH 7.5, expt 2), the “n (stoichiometry)” value came out at 0.40, the ΔG is -10.7 kcal/mol and the “−TΔS” value is -1.5 kcal/mol. Also, the “ΔH (±error)” value at ARM domain of HSF2BP [1] (pH 7.5, expt 2, error in brackets) is given as −9.2 (0.1) kcal/mol. For the same molecule, the “affinity relative to F0” value on ARM domain of HSF2BP [1] (compared with the affinity measured between ARM and F0) was “about threefold higher”. Also, at ARM domain of HSF2BP [2], the “Dmax of complex with ARM” value is 104 Å and the “Rg of complex with ARM” value is on record as 34 Å. Further, on ARM domain of HSF2BP [2] (Bio SEC-3, 25 mM Tris-HCl pH 7.5, 250 mM NaCl, theoretical mass of four ARM bound to two F15X 108 kDa), the “molecular weight of complex with ARM” value was 109 kDa. Besides, the “oligomeric state of ARM” value on ARM domain of HSF2BP [3] (SEC-MALS and SEC-SAXS) was “tetrameric”. Further, at ARM domain of HSF2BP [3] (SEC-MALS, Superdex 200 10/300 GL, 25 mM Tris-HCl pH 7.5, 250 mM NaCl, 5 mM β-mercaptoethanol), the “molecular weight of species in solution” value is recorded as 94 kDa.

B1: Human BRCA2 fragment F0 (S2213-Q2342, C2332T) (domain or fragment, UniProt P51587 2213-2342, looked up)
chain: STYSKDSENYFETEAVEIAKAFMEDDELTDSKLPSHATHSLFTCPENEEMVLSNSRIGKRRGEPLILVGEPSIKRNLLNEFDRIIENQEKSLKASKSTPDGTIKDRRLFMHHVSLEPITTVPFRTTKERQ
notes: BRCA2, human, residues 2213-2342 with C2332T; pET-22b fusion: BRCA2 fragment, TEV site, GB1, 6xHis; residues of the TEV site may remain at the C-terminus after cleavage (surmise); 15N- or 15N/13C-labelled for NMR; also called BRCA2-F0; source: E. coli BL21 DE3 Star, purified (HisTrap, TEV cleavage, SEC); not shown: GB1, C-terminal, cleaved; His6, C-terminal, cleaved
As a reminder, the Kd is the concentration at which binding is half-saturated. Read a low Kd as higher affinity. In general, stoichiometry N refers to the number of molecules, sites or subunits per partner or assembly. Consider B1, for which, in data set [4], the Kd is 31 nM and 25 nM; the dH is -8.3 kcal/mol and -11.9 kcal/mol; the “stoichiometry N” value is 0.45 and 0.49. In data set [5], the affinity, expressed as Kd, was 1.3 nM; the dH is -11 kcal/mol and -10.9 kcal/mol; the “stoichiometry N” value was 0.43 and 0.47.
On to DGTIKDRRLFMHHVSLEPITTVPFRTTKERQ (modifications not checked) [BRCA2 peptide F15X∆12 (D2312-E2342)], for which, in data set [6], the Kd is 2100 nM and 1500 nM; the dH is -1.8 kcal/mol and -1.7 kcal/mol; the stoichiometry N is 0.9 and 0.89.
